We go through six compounds from ChEMBL document CHEMBL1148993, “UV-mediated genotoxicity of furanoquinoline and of certain tryptophan-derived alkaloids” (J Nat Prod, 1983).

The subject of series [1] is CHO. The experiment in a line: (§1) Genotoxicity in CHO cells assessed as mitotic inhibition at 0.62 ppm after 60 mins in dark followed by 5 W/m'2 UV irradiation for 30 mins. It is filed as toxicity, cell-based, Cricetulus griseus. The following applies: chinese hamster, cho, 0.5 h.
Series [2] concerns CHO. Description: Genotoxicity in CHO cells assessed as mitotic inhibition at 0.31 ppm after 60 mins in dark followed by 5 W/m'2 UV irradiation for 30 mins. The format is toxicity, cell-based, Cricetulus griseus. Conditions: chinese hamster, 0.5 h; call rule not given here.
Series [3] deals with CHO. The experiment in a line: Genotoxicity in CHO cells assessed as chromosomal aberrations at 0.07 ppm after 60 mins in dark followed by 5 W/m'2 UV irradiation for 30 mins. It is filed as toxicity, cell-based, Cricetulus griseus. The following applies: chinese hamster, 0.5 h.
The test system of series [4] is Pseudomonas aeruginosa. Description: Phototoxicity against Pseudomonas aeruginosa at 100 ug/disk after irradiation with W/m'2 UV light. The format is functional. Conditions: light or radiation study, read-out: IZ.
Series [5] has as its system Pseudomonas aeruginosa. The experiment in a line: Phototoxicity against Pseudomonas aeruginosa at 100 ug/disk in dark. It is filed as functional. The following applies: light or radiation study, read-out: IZ.
The test system of series [6] is Pseudomonas fluorescens. The experiment in a line: Phototoxicity against Pseudomonas fluorescens at 100 ug/disk after irradiation with W/m'2 UV light. It is filed as functional. Conditions: light or radiation study, read-out: IZ.
The test system of series [7] is Pseudomonas fluorescens. The experiment in a line: Phototoxicity against Pseudomonas fluorescens at 100 ug/disk in dark. Conditions: light or radiation study, read-out: IZ. It is filed as functional.
For series [8], the system named is Bacillus subtilis. The experiment in a line: Phototoxicity against Bacillus subtilis at 100 ug/disk after irradiation with W/m'2 UV light. The format is functional. Conditions: light or radiation study, read-out: IZ.
Series [9] concerns Enterococcus faecalis. The experiment in a line: Phototoxicity against Streptococcus faecalis at 100 ug/disk after irradiation with W/m'2 UV light. The following applies: light or radiation study, read-out: IZ. It is filed as functional.
Series [10] concerns Enterococcus faecalis. The experiment in a line: Phototoxicity against Streptococcus faecalis at 100 ug/disk in dark. It is filed as functional. Conditions: light or radiation study, read-out: IZ.
Series [11] has as its system Staphylococcus aureus. The experiment in a line: Phototoxicity against Staphylococcus aureus at 100 ug/disk after irradiation with W/m'2 UV light. It is filed as functional. Conditions: light or radiation study, read-out: IZ.
The subject of series [12] is Staphylococcus aureus. The experiment in a line: Phototoxicity against Staphylococcus aureus at 100 ug/disk in dark. It is filed as functional. The following applies: light or radiation study, read-out: IZ.
The test system of series [13] is Candida albicans. The experiment in a line: Phototoxicity against Candida albicans at 100 ug/disk after irradiation with W/m'2 UV light. The following applies: light or radiation study, read-out: IZ. The format is functional.
The test system of series [14] is Candida albicans. Description: Phototoxicity against Candida albicans at 100 ug/disk in dark. The following applies: light or radiation study, read-out: IZ. The format is functional.
Series [15] has as its system Saccharomyces cerevisiae. The experiment in a line: Phototoxicity against Saccharomyces cerevisiae at 100 ug/disk after irradiation with W/m'2 UV light. The following applies: light or radiation study, read-out: IZ. The format is functional.
The subject of series [16] is Saccharomyces cerevisiae. Description: Phototoxicity against Saccharomyces cerevisiae at 100 ug/disk in dark. The format is functional. Conditions: light or radiation study, read-out: IZ.
Series [17] concerns CHO. Description: Genotoxicity against CHO cells. Conditions: chinese hamster. It is filed as toxicity, cell-based, Cricetulus griseus.
The subject of series [18] is CHO. Description: Genotoxicity against CHO cells after UV irradiation. It is filed as toxicity, cell-based, Cricetulus griseus. The following applies: chinese hamster.
In series [19] the test system is CHO. Description: Genotoxicity in CHO cells assessed as mitotic inhibition at 1.25 ppm after 60 mins in dark followed by 5 W/m'2 UV irradiation for 30 mins. The following applies: chinese hamster, 0.5 h. The format is toxicity, cell-based, Cricetulus griseus.
The nature of series [20]: as §1. The format is toxicity, cell-based, Cricetulus griseus. Conditions: chinese hamster, CHO cells; read-out: Activity.
Series [21] concerns Escherichia coli. Description: Phototoxicity against Escherichia coli at 10 ug/disk after irradiation with W/m'2 UV light. The format is functional. Conditions: light or radiation study, read-out: IZ.
For series [22], the system named is Escherichia coli. The experiment in a line: Phototoxicity against Escherichia coli at 10 ug/disk in dark. The format is functional. The following applies: light or radiation study, read-out: IZ.
Series [23] deals with Pseudomonas aeruginosa. Description: Phototoxicity against Pseudomonas aeruginosa at 10 ug/disk after irradiation with W/m'2 UV light. The format is functional. The following applies: light or radiation study, read-out: IZ.
Series [24] deals with Pseudomonas aeruginosa. Description: Phototoxicity against Pseudomonas aeruginosa at 10 ug/disk in dark. The following applies: light or radiation study, read-out: IZ. The format is functional.
Series [25] deals with Pseudomonas fluorescens. Description: Phototoxicity against Pseudomonas fluorescens at 10 ug/disk after irradiation with W/m'2 UV light. It is filed as functional. Conditions: light or radiation study, read-out: IZ.
For series [26], the system named is Pseudomonas fluorescens. The experiment in a line: Phototoxicity against Pseudomonas fluorescens at 10 ug/disk in dark. The following applies: light or radiation study, read-out: IZ. The format is functional.
The test system of series [27] is Bacillus subtilis. The experiment in a line: Phototoxicity against Bacillus subtilis at 10 ug/disk after irradiation with W/m'2 UV light. It is filed as functional. The following applies: light or radiation study, read-out: IZ.
The subject of series [28] is Bacillus subtilis. The experiment in a line: Phototoxicity against Bacillus subtilis at 10 ug/disk in dark. The format is functional. Conditions: light or radiation study, read-out: IZ.
The test system of series [29] is Enterococcus faecalis. Description: Phototoxicity against Streptococcus faecalis at 10 ug/disk after irradiation with W/m'2 UV light. It is filed as functional. Conditions: light or radiation study, read-out: IZ.
Series [30] deals with Enterococcus faecalis. Description: Phototoxicity against Streptococcus faecalis at 10 ug/disk in dark. The format is functional. The following applies: light or radiation study, read-out: IZ.
The test system of series [31] is Staphylococcus aureus. Description: Phototoxicity against Staphylococcus aureus at 10 ug/disk after irradiation with W/m'2 UV light. Conditions: light or radiation study, read-out: IZ. The format is functional.
For series [32], the system named is Staphylococcus aureus. The experiment in a line: Phototoxicity against Staphylococcus aureus at 10 ug/disk in dark. The format is functional. Conditions: light or radiation study, read-out: IZ.
In series [33] the test system is Candida albicans. The experiment in a line: Phototoxicity against Candida albicans at 10 ug/disk after irradiation with W/m'2 UV light. It is filed as functional. Conditions: light or radiation study, read-out: IZ.
In series [34] the test system is Candida albicans. Description: Phototoxicity against Candida albicans at 10 ug/disk in dark. Conditions: light or radiation study, read-out: IZ. It is filed as functional.
Series [35] has as its system Saccharomyces cerevisiae. The experiment in a line: Phototoxicity against Saccharomyces cerevisiae at 10 ug/disk after irradiation with W/m'2 UV light. The format is functional. Conditions: light or radiation study, read-out: IZ.
Series [36] concerns Saccharomyces cerevisiae. The experiment in a line: Phototoxicity against Saccharomyces cerevisiae at 10 ug/disk in dark. It is filed as functional. Conditions: light or radiation study, read-out: IZ.
Series [37] concerns CHO. The experiment in a line: Genotoxicity in CHO cells assessed as chromosomal aberrations at 0.3 ppm after 90 mins in dark. It is filed as toxicity, cell-based, Cricetulus griseus. Conditions: chinese hamster, 1.5 h.
For series [38], the system named is CHO. The experiment in a line: Genotoxicity in CHO cells assessed as mitotic inhibition at 0.2 ppm after 60 mins in dark followed by 5 W/m'2 UV irradiation for 30 mins. The format is toxicity, cell-based, Cricetulus griseus. The following applies: chinese hamster, 0.5 h.
Series [39] deals with CHO. The experiment in a line: Genotoxicity in CHO cells assessed as chromosomal aberrations at 0.1 ppm after 60 mins in dark followed by 5 W/m'2 UV irradiation for 30 mins. It is filed as toxicity, cell-based, Cricetulus griseus. The following applies: chinese hamster, 0.5 h.
The test system of series [40] is CHO. The experiment in a line: Genotoxicity in CHO cells assessed as chromosomal aberrations at 0.04 ppm after 60 mins in dark followed by 5 W/m'2 UV irradiation for 30 mins. It is filed as toxicity, cell-based, Cricetulus griseus. The following applies: chinese hamster, 0.5 h.
Series [41] deals with CHO. The experiment in a line: Genotoxicity in CHO cells assessed as chromosomal aberrations at 0.02 ppm after 60 mins in dark followed by 5 W/m'2 UV irradiation for 30 mins. The format is toxicity, cell-based, Cricetulus griseus. Conditions: chinese hamster, 0.5 h.

Where a name gives a salt, the structure may show the parent alone.

`COc1ccc2[nH]c3c(c2c1)CCN=C3C`: the Activity result in series [1] is given as “Toxic”; in [2] it was “Active”; in series [3], 0%.

With `CN1[C@@H]2CC[C@H]1C[C@@H](OC(=O)C(CO)c1ccccc1)C2` (some centres not stated) [ATROPINE SULFATE], the zone of inhibition at 100 µg/disc in series [4], in series [5], in series [6], in series [7], in series [8] and in [9] was 0 mm each time. Besides, the zone of inhibition at 100 µg/disc in series [10], in series [11], in series [12], in series [13], in series [14] and in series [15] was 0 mm each time. In addition, the zone of inhibition at 100 µg/disc in [16] turned out to be 0 mm.

For `CN1[C@@H]2CC[C@H]1C[C@@H](OC(=O)C(CO)c1ccccc1)C2` (some centres not stated) [ATROPINE], the Activity result in series [17] and in series [18] was “Not Active” throughout.

As to `COc1ccc2c3c([nH]c2c1)C(C)=NCC3` [HARMALINE], the result in series [19] and in series [1] was Active.

Turning to `Cc1nccc2c1[nH]c1ccccc12` [HARMANE HYDROCHLORIDE], the inhibition at 0.5 h, 0.62 ppm in [20] turned out to be 0%.

Consider `COc1c2occc2cc2ccc(=O)oc12` [METHOXSALEN], for which the zone of inhibition at 10 µg/disc in series [21] was found to be 14 mm; in series [22], 0 mm; in series [23] it was 0 mm; in [24], 0 mm; in series [25], 0 mm; in series [26], 0 mm. Moreover, the zone of inhibition at 10 µg/disc came to 14 mm in series [27]; 0 mm in series [28]; 14 mm in series [29]; 0 mm in [30]; 18 mm in series [31]; 0 mm in series [32]. The zone of inhibition at 10 µg/disc in [33] worked out at 14 mm; in series [34], 0 mm; in series [35], 19 mm; in series [36] it was 0 mm. Also, the Activity in series [37] is given as 0%; in series [38], “Active”; in series [39], 63.6%; in [40], 38.8%; in series [41] it was 7.1%.
